≈ marks a conversion by molar mass, not a printed value.
Tests used:
[1] = test system: human orthotopic retinoblastoma xenografts; parameters: method as in PMID 22237022; details: cited from earlier work
retinoblastoma cells = test system: retinoblastoma cells; parameters: method as in PMID 22237022; details: cited from earlier work
[2] = Concentration and stability of R406 in castor oil and castor oil emulsion; assay type: physicochemical
Description: (§1) For oral delivery of R788, the target dose of 25 mg/kg R788 was administered by oral gavage as a 4 mM solution in 0.01 N citrate buffer, pH 6 ([9]). For subconjunctival administration, R788 was prepared at a concentration of 4 mM in 2% PEG-800 and filtered through a 0.22 μm filter prior to use (see Table S1). R788 was also administered subconjunctivally as a suspension at a concentration of 25 mM in 10% 2-hydroxylpropyl-β-cyclodextrin (HPβCD, Sigma-Aldrich). For subconjunctival administration, R406 phenylsulfonate salt was administered at a concentration of 800–900 μM as a cosolvent solution in a formulation of 5% Cremaphor-eL, 0.5% ethanol, 0.2% Tween 80 and 94.3% PBS, filtered through a 0.22 μm filter prior to use (see Table S2). R406 phenylsulfonate salt was also administered subconjunctivally at a dose of 31.4 mM solution in DMSO. R406 free base was administered subconjunctivally at a concentration of 6.5 mM as a 25% castor oil (Sigma-Aldrich) emulsion. This emulsion was prepared by mixing castor oil: ethanol (1:1) solution of R406 (approx. 35 mM), in vacuo evaporation of the ethanol, and centrifugation to remove any excess R406, then emulsifying the R406 oil phase in an aqueous phase comprised of Cremaphor-eL, Tween 80 and PBS (final composition of the emulsion: 25% castor oil, 5% Cremaphor-eL, 0.2% Tween-80, 69.8% PBS) by probe sonication. For intravitreal injection, R788 solution was prepared by filtering a 0.12 mM (120 μM) solution of R788 in saline through a 0.22 μm filter. […] For topical delivery, 25–30 mM suspensions were prepared in 5% HPβCD. R406 or R788 concentration in all formulations was determined by UPLC prior to study (in cases where formulation was filtered before administration, concentration was determined post-filtering) Table I.
An emulsion of 30% castor oil, 5% Cremaphor, 4% T80, 61% PBS was prepared and samples were stored at 4 °C and room temperature (25 °C). Samples were diluted and OD600 for each dilution was measured in triplicate on the day of emulsion preparation (storage time = 0 days) and after 6 days of storage. OD600 was measured using a black Costar clear bottom plate and a Spectramax plate reader.
For storage stability in emulsion, n =4.

[3] = Crashing upon dilution of DMSO stock in PBS; assay type: physicochemical
Excerpt: Supplement 11095_2014_1399_MOESM1_ESM.docx, table 14: Table S14. R406 phenylsulfonate salt and free base crashing upon dilution of DMSO stock in PBS | column: Measured Concentration

[4] = Maximum solubility in PBS or saline; assay type: physicochemical
[5] = Vitreous pharmacokinetics after oral or subconjunctival administration; assay type: in vivo, mouse; details: local (subconjunctival), castor oil emulsion 6.5 mM, 65 nmol per eye, mice
Description: as §1
(§2) For the systemic delivery study R788 was administered as a single bolus dose (25 mg/kg, 10 mL/kg volume) by oral gavage. For the subconjunctival administration study R788 or R406 (10 µL of formulation) was injected into the subconjunctival space of an anesthetized mouse using a Hamilton microliter syringe (Hamilton company, Reno NV). For the intravitreal administration study, R788 (5 μL of […] in saline) was administered to each eye via direct injection. To perform the intravitreal injection, mice were anesthetized, a small incision between the sclera and the cornea was created with a […] needle, and the R788 was injected into the vitreous using a Hamilton microliter syringe. For the topical administration study, R406 (2 μL of 25–30 mM suspension) was applied as a drop to the surface of each eye of an anesthetized mouse.
(§3) At serial time points (0.5, 1, 2, 4, and 8 h post-injection, n = 3 for each time point), blood was collected by terminal cardiac puncture after isoflurane anesthesia. Whole-blood samples were centrifuged immediately at 10,000×g for 5 min at 4°C to separate plasma. Once the cardiac puncture and blood collection was completed, the animal was perfused with 10 mL of saline and euthanized by cervical dislocation. Eyes were removed, rinsed in PBS, gently patted dry, then rinsed and dried again. Eyes were dissected and vitreous was collected. Plasma and vitreous samples were put on dry ice immediately after collection and stored at −80°C until analysis. For quantitative analysis methods and assay validation methods and results, see Supplementary Information.
(§4) Plasma and vitreous concentration time data were analyzed using non-compartmental analysis in WinNonlin 6.2 (Pharsight, Mountain View, CA), providing PK parameters including Cmax (maximum observed concentration), Tmax (time to reach maximum observed concentration), AUC (area under the concentration time curve) and MRT (mean residence time). AUC and AUMC (area under the concentration time first moment curve) values were estimated with the linear trapezoidal method, with parameters calculated using mean concentration values at each time point. […]

[6] = Plasma pharmacokinetics after oral or subconjunctival administration; assay type: in vivo, mouse; details: local (subconjunctival), castor oil emulsion 6.5 mM, 65 nmol per eye; mice
Description: as §1, §2, §3, §4

[7] = Intraocular and plasma R406 after topical administration (eye drops); assay type: in vivo, mouse; details: mice; for R406 levels in the eye at 0.5 h post dosing / R406 levels in the eye at 1 h post dosing / drug in plasma samples: single topical dose; for R406 levels in the eye at 0.5 h post dosing / R406 levels in the eye at 1 h post dosing: drops, 2 μL of 25 mM suspension in 5% HPβCD; for drug in plasma samples: data not shown
Description: as §1, §2, §3
To evaluate the topical route for R406 delivery, we tested the intraocular concentration after a single topical dose of R406 free base or an R406 […] salt.

[8] = Co-solvent solution formulation solubility matrix; assay type: physicochemical; details: read-out: R788 Solubility
[9] = Bioconversion of R788 to R406 in mouse vitreous; assay type: in vitro ADME; details: extracted mouse vitreous, 37°C, initial 25 μM R788, within 2 h
Description: Conversion of R788 to R406 was examined in freshly harvested murine vitreous, 2 U/mL bovine alkaline phosphatase in PBS (positive control), or plain PBS (no enzyme, negative control) at 37°C using a modified version of previously described phosphate prodrug conversion protocols ([9], [12]). Alkaline phosphatase (ALP) from bovine intestinal mucosa was obtained from Invitrogen and was reconstituted and diluted according to the manufacturer’s instructions. Vitreous was harvested from a mixed population of mice, pooled, and kept on ice for 1 - 2 h. The incubation media were pre-warmed to 37°C before the reaction was initiated by addition of 1 mM of R788 in saline (6 μL of R788 in saline into 234 μL of incubation media in a 1.5 mL Eppendorf tube). R788 was diluted into the incubation media at a 1:40 ratio (volume:volume) to mimic the dilution encountered during intravitreal injection in humans (typically 100 μL injection volume into 4–5 mL of human vitreous volume ([13], [14]). Initial estimated concentration of R788 was 25 μM. At the desired time points (0, 5, 10, 20, 30, 45, 60, and 120 min) an aliquot of 25 μl was collected from each incubation vial and transferred to a 1.5 mL Eppendorf tube, containing 25 μl of acetonitrile to terminate the reaction. 3 samples were tested per time point. Samples were stored at −80°C until quantification.

[10] = Vitreous and plasma R406 after intravitreal injection of R788; assay type: in vivo, mouse; details: intravitreal injection of R788 in saline, 5 μL per eye of 120 μM; mice
Description: For oral delivery of R788, the target dose of 25 mg/kg R788 was administered by oral gavage as a 4 mM solution in 0.01 N citrate buffer, pH 6 ([9]). For subconjunctival administration, R788 was prepared at a concentration of 4 mM in 2% PEG-800 and filtered through a 0.22 μm filter prior to use (see Table S1). R788 was also administered subconjunctivally as a suspension at a concentration of 25 mM in 10% 2-hydroxylpropyl-β-cyclodextrin (HPβCD, Sigma-Aldrich). For subconjunctival administration, R406 phenylsulfonate salt was administered at a concentration of 800–900 μM as a cosolvent solution in a formulation of 5% Cremaphor-eL, 0.5% ethanol, 0.2% Tween 80 and 94.3% PBS, filtered through a 0.22 μm filter prior to use (see Table S2). R406 phenylsulfonate salt was also administered subconjunctivally at a dose of 31.4 mM solution in DMSO. […] R406 or R788 concentration in all formulations was determined by UPLC prior to study (in cases where formulation was filtered before administration, concentration was determined post-filtering) Table I. […]
At serial time points (0.5, 1, 2, 4, and 8 h post-injection, n = 3 for each time point), blood was collected by terminal cardiac puncture after isoflurane anesthesia. […] For quantitative analysis methods and assay validation methods and results, see Supplementary Information.

[11] = parameters: method as in PMID 21515735; details: previous work; cited from earlier work
[12] = parameters: method as in PMID 21515735; details: subconjunctival administration; previous work; cited from earlier work

COc1ccc(-c2cc3nccn3c(Nc3ncccc3C(N)=O)n2)cc1OC [BAY-61-3606]
blocking proliferation of human orthotopic retinoblastoma xenografts in vivo [1]: efficacious | induction of caspase-mediated cell death of retinoblastoma cells in vitro (retinoblastoma cells): can induce caspase-mediated cell death

COc1cc(Nc2ncc(F)c(Nc3ccc4c(n3)NC(=O)C(C)(C)O4)n2)cc(OC)c1OC [R406 free base]
time stable in castor oil ([2]; room temperature): at least 6 days | average concentration remaining, % of the initial concentration ([2]; stored in castor oil at room temperature, after 6 days, n=3): 113.3% | Measured Concentration ([3]; DMSO stock diluted 1 in 10 in PBS prior to filtration (theoretical 1.11 mM)): 965 µM | Measured Concentration ([3]; DMSO stock diluted 1 in 10 in PBS, 0.22 micron filtered): 7 µM | Measured Concentration ([3]; DMSO stock diluted 1 in 20 in PBS, 0.22 micron filtered): 6 µM | Measured Concentration ([3]; DMSO stock, printed 'diluted 1 in 10 in PBS prior to filtration' (second such line, theoretical 557 µM)): 510 µM | solubility in PBS ([4]; PBS): insoluble (below the limit of quantitation) | Cmax [5]: 169 ± 35.9 nM | Vitreous AUClast [5]: 0.43 µM·h | Vitreous Dose normalized AUC [5]: 3.3 nM∙h/nmol | Vitreous MRT0-4h [5]: 2.19 h | Vitreous Tlast [5]: 4 h | Vitreous Tmax [5]: 0.5 h | Vitreous MRT0-4h ([5]; listed as R406 base): ≥ 2 h | Cmax [6]: 119 nM | Plasma AUClast [6]: 0.119 µM·h | Plasma Dose normalized AUC [6]: 0.9 nM∙h/nmol | Plasma Tlast [6]: 2 h | Plasma Tmax [6]: 0.5 h | R406 levels in the eye at 0.5 h post dosing [7]: 0.1 ± 0.06 µM | R406 levels in the eye at 1 h post dosing [7]: 0.1 ± 0.1 µM | drug in plasma samples [7]: No detectable drug

CCCCCCCCCCCCCCCC(=O)O.COc1cc(Nc2ncc(F)c(Nc3ccc4c(n3)NC(=O)C(C)(C)O4)n2)cc(OC)c1OC [R406 palmitate salt]
R406 levels in the eye at 0.5 h post dosing [7]: 0.3 ± 0.3 µM | R406 levels in the eye at 1 h post dosing [7]: 0.3 ± 0.2 µM | drug in plasma samples [7]: No detectable drug | vitreous concentration of R406 ([7]; topical 40 mM R406 palmitate 5% cyclodextrin suspension, 1-4 hourly doses, sustained for 1.5 h after each application): 1 to 2 µM | Cmax ([7]; topical delivery in cyclodextrin drops, sustainable via repeated dosing, read-out: vitreous Cmax / intraocular concentration): > 1000 nM

COc1cc(Nc2ncc(F)c(Nc3ccc4c(n3)N(COP(=O)(O)O)C(=O)C(C)(C)O4)n2)cc(OC)c1OC [R788]
solubility ([8]; Trial 2: 2% PEG-8000, 98% PBS): 3560 µM (≈ 2070 µg/mL) | solubility ([8]; aqueous buffer, Trial 3: 0.5% EtOH, 99.5% PBS): 1010 µM (≈ 586 µg/mL) | solubility ([8]; aqueous buffer, Trial 4: 3% Glycerin, 97% PBS): 1130 µM (≈ 656 µg/mL) | solubility ([8]; aqueous buffer, Trial 9: 100% PBS): 1240 µM (≈ 720 µg/mL) | solubility ([8]; aqueous with cosolvent or surfactant or cyclodextrin, Trial 1: 0.1% Tyloxapol, 99.9% PBS): 1230 µM (≈ 714 µg/mL) | solubility ([8]; aqueous with cosolvent or surfactant or cyclodextrin, Trial 5: 5% Cremaphor-eL, 95% PBS): 1430 µM (≈ 830 µg/mL) | solubility ([8]; aqueous with cosolvent or surfactant or cyclodextrin, Trial 6: 10% PPG, 90% PBS): 1130 µM (≈ 656 µg/mL) | solubility ([8]; aqueous with cosolvent or surfactant or cyclodextrin, Trial 7: 15% pPPG, 85% PBS): 1530 µM (≈ 888 µg/mL) | solubility ([8]; aqueous with cosolvent or surfactant or cyclodextrin, Trial 8: 4% Tween-80, 96% PBS): 1710 µM (≈ 993 µg/mL) | solubility ([8]; aqueous with cosolvent or surfactant or cyclodextrin, Trial 10: 5% Cremaphor-eL, 4% Tween-80, 91% PBS): 1510 µM (≈ 877 µg/mL) | solubility ([8]; aqueous with cosolvent or surfactant or cyclodextrin, Trial 11: 15% pPPG, 4% Tween-80, 81% PBS): 1840 µM (≈ 1070 µg/mL) | solubility ([8]; aqueous with cosolvent or surfactant or cyclodextrin, Trial 12: 5% Cremaphor-eL, 15% pPPG, 80% PBS): 2150 µM (≈ 1250 µg/mL) | solubility ([8]; aqueous with cosolvent or surfactant or cyclodextrin, Trial 13: 5% Cremaphor-eL, 15% pPPG, 4% Tween-80, 76% PBS): 2640 µM (≈ 1530 µg/mL) | solubility ([8]; aqueous with cosolvent or surfactant or cyclodextrin, Trial 14: 2% PEG-8000, 5% Cremaphor-eL, 15% pPPG, 4% Tween-80, 74% PBS): 3470 µM (≈ 2010 µg/mL) | conversion of R788 to R406 [9]: 100% | R406 levels in plasma samples [10]: BLOQ | solubility ([4]; PBS, read-out: maximum solubility in PBS): 1400 µM (≈ 813 µg/mL) | solubility ([4]; saline, read-out: maximum solubility in saline): 1200 to 1400 µM (≈ 697 to 813 µg/mL)

COc1ccc(C2=N[C@@H](c3ccc(Cl)cc3)[C@@H](c3ccc(Cl)cc3)N2C(=O)N2CCNC(=O)C2)c(OC(C)C)c1 [nutlin-3a]
water solubility [11]: approximately 40 μM | AUC ratio of vitreous to plasma [12]: 28.6

— PMC4213378, “Pharmacokinetics and Efficacy of the Spleen Tyrosine Kinase Inhibitor R406 after Ocular Delivery for Retinoblastoma” (Pharmaceutical Research, 2014)
